In patent US12162855B2, “Tetrahydroquinolino derivatives for the treatment of metastatic and chemoresistant cancers” (THE TRUSTEES OF PRINCETON UNIVERSITY, priority 2018, dated 2024):

Assays:
[1] = Toxicity experiments in C57Bl6 mice (IP); assay type: in vivo
Description: All mice were originally ordered from the Jackson Laboratory (Bar Harbor, ME) and breeding was conducted in a specific pathogen-free (SPF) barrier facility. Toxicity experiments were performed on 8-12-week old male and female C57B16 mice. MBE1 was dissolved at 50 mg/mL in DMSO followed by a […] into Kolliphor EL, followed by a 1:5 dilution into PBS to yield a 5 mg/ml MBE1 solution, (10% DMSO, 10% Kolliphor EL, 80% PBS). This was administered via IP injection at ascending doses from 12.5 to 200 mg/kg body mass in a set of 3 mice at 24 h intervals. Body condition score, food uptake, fecal/urine production, behavior and body weight were measured as toxicity readouts. Five mice were then treated every 3 days with 25 mg/kg MBE1 for 18 days.

ALDH1a3 = target: T1, ALDH1a3 (Homo sapiens, UniProt P47895); experiment: ALDEFLUOR assay in SUM159 cells expressing ALDH isoforms 1a1, 1a2, 1a3, 3a1; assay type: cell-based; details: SUM159 cells expressing ALDH 1a1, 1a2, 1a3 or 3a1
T1 construct: lentiviral vectors containing either the vector backbone or full-length human Aldh1a3; expressed in transfected cells; host or cells: SUM159-M1a (A1) and SUM159 (A7) breast cancer cells, lentiviral pLex vector, puromycin selection
T1 sequence (P47895 1-512): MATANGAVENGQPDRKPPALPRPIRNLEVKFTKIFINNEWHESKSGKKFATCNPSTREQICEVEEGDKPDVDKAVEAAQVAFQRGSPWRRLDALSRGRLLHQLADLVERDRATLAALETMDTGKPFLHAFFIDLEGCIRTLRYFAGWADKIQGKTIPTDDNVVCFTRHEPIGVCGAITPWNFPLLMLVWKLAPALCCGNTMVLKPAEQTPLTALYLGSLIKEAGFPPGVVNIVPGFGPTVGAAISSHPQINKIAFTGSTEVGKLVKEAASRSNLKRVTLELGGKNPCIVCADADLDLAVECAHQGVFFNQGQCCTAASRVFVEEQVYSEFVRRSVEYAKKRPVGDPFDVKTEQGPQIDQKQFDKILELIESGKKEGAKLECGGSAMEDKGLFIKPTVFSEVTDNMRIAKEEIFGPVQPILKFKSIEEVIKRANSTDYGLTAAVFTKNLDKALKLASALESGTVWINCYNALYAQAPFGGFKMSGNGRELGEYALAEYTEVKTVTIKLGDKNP
Description: The coding sequences of Aldh1a1, Aldh1a2, Aldh1a3 and Aldh3a1 were cloned from cDNA made from pooled human reference RNA samples. Cloned sequences flanked by Age1 and Xho1 restriction sites were inserted into the pLex lentiviral plasmid. Clones were sequenced and compared against NCBI expressed sequence tags (ESTs) for accuracy. Viral production of each enzyme was performed by transfection into the 293T packaging cell line using PEI along with PsPax2 and VSVG packaging vectors. Viruses were collected and filtered at 0.45 μm, then cells were transduced using polybrene (8 μg/mL) for 12 hours, followed by culture with 1 μg/mL puromycin for the duration of experiments. All viral transduction and selection was performed on a cell population-wide basis.
Cells were counted, centrifuged and resuspended at 1,000,000 cells/mL in ALDEFLUOR™ buffer (Stemcell Technologies). ALDEFLUOR™ substrate (Stemcell Technologies, 1:200) and test compound or 1 mM DEAB were added to cell suspension and incubated at 37° C. for 45 minutes with vortexing every 15 minutes. Cells were centrifuged and resuspended in ALDEFLUOR™ buffer with DAPI at 5 μg/mL. Samples were analyzed with the BD LSR2 flow cytometry platform. Gating was performed using DEAB as a negative control.
ALDH isoforms 1a1, 1a2, 1a3 and 3a1 were expressed in MCF7 or SUM159 cells, which were subsequently used in an ALDEFLUOR™ assay.

Row | SMILES | chronic toxicity (body condition score, food uptake, fecal/urine production, behavior, body weight) ([1]; 25 mg/kg every 3 days for 18 days) | acute toxicity (body condition score, food uptake, fecal/urine production, behavior, body weight) ([1]; ascending doses 12.5 to 200 mg/kg at 24 h intervals) | isoform specificity, percentage of ALDEFLUOR-positive SUM159 cells (FIG. 13C) (ALDH1a3)
1 | CCc1cnccc1C(=O)Nc1cc2c(cc1F)NC(=O)CC2 [MBE1, 3-ethyl-N-(7-fluoro-2-oxo-1,2,3,4-tetrahydroquinolin-6-yl)isonicotinamide] | Neither experiment showed any indication of either acute or chronic toxicity | Neither experiment showed any indication of either acute or chronic toxicity | –
2 | CCc1ccccc1C(=O)Nc1cc2c(cc1F)NC(=O)CC2 [MBE1.5, 2-ethyl-N-(7-fluoro-2-oxo-1,2,3,4-tetrahydroquinolin-6-yl)benzamide] | – | – | specifically inhibits ALDH1a3 at concentrations below 10 μM
